Reference: ChEMBL document CHEMBL6114978, “Rational design and synthesis of pyrazole derivatives as potential SARS-CoV-2 Mpro inhibitors: An integrated approach merging combinatorial chemistry, molecular docking, and deep learning” (Bioorg Med Chem, 2025)

Legend:
Design in all cases: species or system Severe acute respiratory syndrome-related coronavirus
[1] = Inhibition of SARS-CoV Main protease
[2] = Inhibition of His-tagged SARS-CoV 3CLpro using Abz-SVTLQSG-Tyr(NO2)R as substrate by fluorometric assay
[3] = Inhibition of SARS-CoV Main protease assessed as inhibition constant

SMILES: CC(C)(C)c1ccc(N(C(=O)c2cnc[nH]2)[C@@H](C(=O)NC2CCCCC2)c2cccnc2)cc1
- IC50 [1]: 1600 nM

SMILES: CC(=O)N[C@H](CN[C@H](C(=O)N[C@@H](CC(C)C)C(=O)N[C@@H](C[C@@H]1CCNC1=O)C(=O)Cn1[nH]c(=O)c2c([N+](=O)[O-])cccc2c1=O)[C@@H](C)OCc1ccccc1)C(C)C
- IC50 [2]: 600 nM

SMILES: Cc1cc(C(=O)N[C@@H](C)C(=O)N[C@H](C(=O)N[C@@H](CC(C)C)C(=O)N[C@H](/C=C/C(=O)OCc2ccccc2)C[C@@H]2CCNC2=O)C(C)(C)C)no1
- Ki [3]: 3300 nM
